The values that follow come from patent US9943563B2, “Compositions and methods for treating vitiligo” (Stealth Peptides International, Inc., priority 2013, dated 2018).

Entries after “also recorded” stand apart in the source; their conditions may differ. Square brackets hold non-standard residues; d marks the D form. Ends that are not written are not given here.

The subject of series [1] is plasma membrane of several mammalian cell types. The note with it: energy-independent manner; cited from earlier work.
Series [2] concerns the target mu-opioid receptor (Homo sapiens, UniProt P35372). To be noted: stated in the description, no test described; cited from earlier work.
For series [3], the system named is melanocytes from human subjects diagnosed with vitiligo (VHM). The experiment in a line: Mitochondrial membrane potential of melanocytes (JC-1 probe). The class given is cell-based. To be noted: peptide at 1.5 μM and 2.0 μM added each day for 7 days, vs 0 μM and untreated NHM. How it is done: Cultured melanocytes from each patient were divided into three groups, wherein each group was treated with D-Arg-2′,6′-Dmt-Lys-Phe-NH2 at 0 μM, 1.5 μM, and 2 μM. D-Arg-2′,6′-Dmt-Lys-Phe-NH2 added to the growth media each day for 7 days. After 7 days, mitochondrial membrane potential (ΔΨm) of the melanocytes were assessed with a JC-1 probe (see, e.g., JC-1 Mitochondrial Membrane Potential Assay Kit, Cayman Chemical Co., Ann Arbor, Mich.).

Series [4] shares this test system. The experiment in a line: ATP production of melanocytes (fluorimetric determination). Format: cell-based. The note with it: 2 μM added each day for 3 days, vs untreated (0 μM). How it is done:
Melanocytes were isolated and cultured from two human patients diagnosed with vitiligo (VHM). Cultured melanocytes from each patient were divided into two groups, wherein each group was treated with D-Arg-2′,6′-Dmt-Lys-Phe-NH2 at 0 μM and 2 μM. D-Arg-2′,6′-Dmt-Lys-Phe-NH2 was added to the growth media each day for 3 days. After 3 days, the melanocytes were lysed and ATP levels were measures by fluorimetric determination. Each assay was performed in triplicate.

The subject of series [5] is autologous vitiligo skin explants. The experiment in a line: T-cell accumulation and cytotoxic activity in autologous vitiligo skin explants. The class given is in vivo, human. The note with it: vitiligo patients, 0.25 mg/kg/day for twelve weeks, perilesional T-cells co-cultured with autologous skin explants 2 days. How it is done:
Active vitiligo patients are subdivided into 2 groups. Group I subjects are administered a daily dose of 0.25 mg/kg/day of D-Arg-2′,6′-Dmt-Lys-Phe-NH2 for twelve weeks whereas Group II vitiligo subjects are treated with drug vehicle and serve as controls. Punch-biopsies are obtained flanking the depigmented macule from Group I and Group II vitiligo subjects. These biopsies are cultured to promote T-cell growth according to the procedures described in Van Den Boom et al., Journal of Investigative Dermatology, 129: 2220-2232 (2009). The ability of these perilesional T-cells to infiltrate and actively kill melanocytes within the skin tissue microenvironment is tested using skin explant assays. Autologous skin explants are generated according to the procedures described in Van Den Boom et al., Journal of Investigative Dermatology, 129: 2220-2232 (2009). Perilesional T-cells are co-cultured with normally pigmented autologous skin explants for 2 days. T-cells are allowed to infiltrate the skin explants and migrate toward the melanocytes located at the dermal-epidermal junction. Skin explant cryosections are analyzed for the presence of infiltrated T-cells, melanocytes, and apoptosis by immunohistochemistry or immunofluorescence as described in Van Den Boom et al., Journal of Investigative Dermatology, 129: 2220-2232 (2009).

Series [6] concerns vitiligo mice. Kind of series: Progressive depigmentation in the pelage of the vitiligo mouse model. Format: in vivo. To be noted: 0.25 mg/kg/day for four weeks before plucking, 2 weeks after plucking dorsal hairs, vs untreated. How it is done: Vitiligo mice described in Lerner et al., Journal of Investigative Dermatology, 87: 299-304 (1986) are obtained. Vitiligo mice are subdivided into 2 groups. Group I mice are administered a daily dose of 0.25 mg/kg/day of D-Arg-2′,6′-Dmt-Lys-Phe-NH2 for four weeks before plucking dorsal hairs whereas Group II vitiligo mice are treated with drug vehicle before plucking. The regrowth of amelanotic hairs is monitored via light microscopy.

The test system of series [7] is adoptive transfer mouse model of vitiligo. Kind of series: Epidermal depigmentation in an adoptive transfer mouse model of vitiligo. The class given is in vivo. To be noted: adoptive transfer vitiligo mice, 0.25 mg/kg/day for four weeks; tail, nose, footpad; vs untreated. How it is done:
Vitiligo mice described in Harris et al., Journal of Investigative Dermatology, 132: 1869-1876 (2012) are obtained. This adoptive transfer mouse model of vitiligo recapitulates the human condition by inducing epidermal depigmentation while sparing the hair. These mice are subdivided into 2 groups. Group I mice are administered a daily dose of 0.25 mg/kg/day of D-Arg-2′,6′-Dmt-Lys-Phe-NH2 for four weeks whereas Group II vitiligo mice are treated with drug vehicle and serve as controls. The loss of pigmentation in epidermal tissues such as the tail, nose and footpad is monitored via light microscopy.

Chain of mu-opioid receptor (P35372 whole entry, species assumed): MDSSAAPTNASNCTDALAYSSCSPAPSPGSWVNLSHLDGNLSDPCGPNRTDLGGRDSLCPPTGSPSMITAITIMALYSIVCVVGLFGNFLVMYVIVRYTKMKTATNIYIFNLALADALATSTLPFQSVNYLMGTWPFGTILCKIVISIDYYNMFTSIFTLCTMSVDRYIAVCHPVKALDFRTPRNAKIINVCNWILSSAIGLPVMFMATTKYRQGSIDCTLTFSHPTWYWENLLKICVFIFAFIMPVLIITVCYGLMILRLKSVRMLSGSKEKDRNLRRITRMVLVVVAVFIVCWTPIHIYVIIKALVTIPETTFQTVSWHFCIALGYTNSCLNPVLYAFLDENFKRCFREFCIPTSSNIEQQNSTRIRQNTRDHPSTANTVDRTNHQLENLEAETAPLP

2′,6′-Dmt-D-Arg-Phe-Lys-NH2: in series [1], the “penetration of the plasma membrane” value is listed as “readily penetrates the plasma membrane”.
For the substance F[dR]FK-NH2, the “mu-opioid receptor agonist activity” value in series [2] is reported as “does not have mu-opioid receptor agonist activity”.
Turning to D-Arg-2′,6′-Dmt-Lys-Phe-NH2, the “mitochondrial membrane potential (ΔΨm) of VHM melanocytes” value in series [3] is given as “returned the mitochondrial membrane potential of the VHM melanocytes to levels found in untreated NHM melanocytes; also recorded: increased the mitochondrial membrane potential”; in series [3] (listed as D-Arg-2′6′-Dmt-Lys-Phe-NH2), “nearly doubled”. Also, the “ATP production of VHM melanocytes” value in series [4] is on record as “elevated ATP production levels; also recorded: increased the ATP production”. In addition, the “melanocyte survival rates in skin explants” value in series [5] was “greater than untreated vitiligo explants”. Further, in series [6], the “rate of progressive depigmentation” value was “reduced rate of progressive depigmentation”. For the same substance, in series [7], the “severity of depigmentation in epidermal tissues” value is “reduced severity of depigmentation”. Further, in series [2], the “mu-opioid receptor agonist activity” value is “does not have mu-opioid receptor agonist activity”.
Tyr-D-Arg-Phe-Lys-NH2: in series [2], the “mu-opioid receptor agonist activity” value is “has mu-opioid receptor agonist activity”.
